Bounds are passed on as bounds.

Test [1] has as its system TFEB. Description: TFEB nuclear translocation assay. It counts as cell-based. To be noted: Homo sapiens; HeLa wt or HeLa TRPML1 KO cells, treated for 2 hrs; ratio of nuclear to ring-region TFEB intensity. In short, it runs like this: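 HeLa wild-type or TRPML1 KO cells treated 2 h with compound at 37 °C, PFA-fixed, immunostained for TFEB (Alexa 488) with Hoechst nuclei. Imaged at ×20, four fields/well. Value is ratio of nuclear to perinuclear-ring TFEB intensity, with nuclei counts.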

In test [2] the test system is THP-1 cells. Description: Lamp1 lysosomal exocytosis assay. It counts as cell-based. To be noted: Homo sapiens, 55 min, 55 min incubation, top dose 20 μM. A digest of the protocol:
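THP-1 cells (1e5/well) exposed to a 7-point 3-fold compound series, top final 20 μM, for 55 min at 37°C. Surface Lamp1 then stained with Lamp1-PE on ice in buffer containing 80 μM Dynasore, and read by flow cytometry as PE geometric mean on live, sytox-negative singlets.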

For `O=C(c1ccccc1)N1CCC2(CC1)CN(S(=O)(=O)c1ccc(C(F)F)cc1)c1ccccc12` [Compound I-161, 1′-benzoyl-1-[4-(difluoromethyl)benzenesulfonyl]-1,2-dihydrospiro[indole-3,4′-piperidine]], the EC50 (as a rule, the concentration that produces a half-maximal response) in test [1] is 2010 to 8000 nM; in test [2] it was 1010 to 5000 nM.
The corresponding values for `O=C(C1CC1)N1CCC2(CC1)CN(S(=O)(=O)c1ccc(C(F)F)cc1)c1ccccc12` [Compound I-162, 1′-cyclopropanecarbonyl-1-[4-(difluoromethyl)benzenesulfonyl]-1,2-dihydrospiro[indole-3,4′-piperidine]] are at least 10000 nM and at least 5010 nM.
The corresponding values for `O=S(=O)(c1ccc(C(F)F)cc1)N1CC2(CCN(Cc3cnccn3)CC2)c2ccccc21` [Compound I-163, 1-[4-(difluoromethyl)benzenesulfonyl]-1′-[(pyrazin-2-yl)methyl]-1,2-dihydrospiro[indole-3,4′-piperidine]] are at most 2000 nM and at least 5010 nM.
The corresponding values for `O=S(=O)(c1ccc(C(F)F)cc1)N1CC2(CCN(Cc3ccccn3)CC2)c2ccccc21` [Compound I-164] are at most 2000 nM and at least 5010 nM.
In the case of `O=S(=O)(c1ccc(C(F)F)cc1)N1CC2(CCN(Cc3cccnc3)CC2)c2ccccc21` [Compound I-165, 1-[4-(difluoromethyl)benzenesulfonyl]-1′-[(pyridin-3-yl)methyl]-1,2-dihydrospiro[indole-3,4′-piperidine]], the EC50 in test [1] is 2010 to 8000 nM; in test [2], at least 5010 nM.
The corresponding values for `O=S(=O)(c1ccc(C(F)F)cc1)N1CC2(CCN(Cc3ccncc3)CC2)c2ccccc21` [Compound I-166, 1-[4-(difluoromethyl)benzenesulfonyl]-1′-[(pyridin-4-yl)methyl]-1,2-dihydrospiro[indole-3,4′-piperidine]] are at most 2000 nM and at least 5010 nM.
For `O=S(=O)(c1ccc(C(F)F)cc1)N1CC2(CCN(Cc3ncccn3)CC2)c2ccccc21` [Compound I-167, 1-[4-(difluoromethyl)benzenesulfonyl]-1′-[(pyrimidin-2-yl)methyl]-1,2-dihydrospiro[indole-3,4′-piperidine]] the same measures were 8010 to 9990 nM and at least 5010 nM.
The corresponding values for `O=S(=O)(c1ccc(C(F)F)cc1)N1CC2(CCN(Cc3ccccc3)CC2)c2ccccc21` [Compound I-168, 1′-benzyl-1-[4-(difluoromethyl)benzenesulfonyl]-1,2-dihydrospiro[indole-3,4′-piperidine]] are at most 2000 nM and at least 5010 nM.
`O=C(Oc1ccccc1)N1CCC2(CC1)CN(S(=O)(=O)c1ccc(C(F)F)cc1)c1ccccc12` [Compound I-169, phenyl 1-((4-(difluoromethyl)phenyl)sulfonyl)spiro[indoline-3,4′-piperidine]-1′-carboxylate]: the figures for the EC50 in test [1] and in test [2] were at most 2000 nM and at least 5010 nM, respectively.
The corresponding values for `O=C(OCC1CC1)N1CCC2(CC1)CN(S(=O)(=O)c1ccc(C(F)F)cc1)c1ccccc12` [Compound I-170, cyclopropylmethyl 1-((4-(difluoromethyl)phenyl)sulfonyl)spiro[indoline-3,4′-piperidine]-1′-carboxylate] are at most 2000 nM and 510 to 1000 nM.
The corresponding values for `O=C(CCc1ccccc1)N1CCC2(CC1)CN(S(=O)(=O)c1ccc(C(F)F)cc1)c1ccccc12` [Compound I-174, 1-(1-((4-(difluoromethyl)phenyl)sulfonyl)spiro[indoline-3,4′-piperidin]-1′-y1)-3-phenylpropan-1-one] are at most 2000 nM and at most 500 nM.
For `CN(Cc1ccccc1)C(=O)N1CCC2(CC1)CN(S(=O)(=O)c1ccc(C(F)F)cc1)c1ccccc12` [Compound I-178, N-benzyl-1-((4-(difluoromethyl)phenyl)sulfonyl)-N-methylspiro[indoline-3,4′-piperidine]-1′-carboxamide] the same measures were 2010 to 8000 nM and 510 to 1000 nM.
As to `CS(=O)(=O)c1ccc(S(=O)(=O)N2CC3(CCN(C(=O)OCc4ccccc4)CC3)c3ccccc32)cc1` [Compound I-180], the results for the EC50 in test [1] and in test [2] were at most 2000 nM and at most 500 nM, respectively.
Consider `CC(C)S(=O)(=O)c1ccc(S(=O)(=O)N2CC3(CCN(C(=O)OCc4ccccc4)CC3)c3ccccc32)cc1` [Compound I-181, benzyl 1-[4-(propane-2-sulfonyl)benzenesulfonyl]-1,2-dihydrospiro[indole-3,4′-piperidine]-1′-carboxylate], for which the EC50 was at most 2000 nM in test [1] and at most 500 nM in test [2].
The corresponding values for `O=C(OCc1ccccc1)N1CCC2(CC1)CN(S(=O)(=O)c1ccc3c(c1)CCS3(=O)=O)c1ccccc12` [Compound I-182, benzyl 1-((1,1-dioxido-2,3-dihydrobenzo[b]thiophen-5-yl)sulfonyl)spiro[indoline-3,4′-piperidine]-1′-carboxylate] are at most 2000 nM and at least 5010 nM.
For the compound `O=C(OCc1ccccc1)N1CCC2(CC1)CN(C(=O)c1ccccc1)c1ccccc12` [Compound I-184, benzyl 1-benzoyl-1,2-dihydrospiro[indole-3,4′-piperidine]-1′-carboxylate], the EC50 in test [1] was at least 10000 nM; in test [2], at least 5010 nM.
As for `O=C(OCc1ccccc1)N1CCC2(CC1)CN(S(=O)(=O)c1ccc(S(=O)(=O)C(F)F)cc1)c1ccccc12` [Compound I-186, benzyl 1-((4-((difluoromethyl)sulfonyl)phenyl)sulfonyl)spiro[indoline-3,4′-piperidine]-1′-carboxylate], the figures for the EC50 in test [1] and in test [2] were at most 2000 nM and at most 500 nM, respectively.
The corresponding values for `O=C(OCc1ccccc1)N1CCC2(CC1)CN(S(=O)(=O)c1ccc(C(F)(F)F)nc1)c1ccccc12` [Compound I-187, benzyl 1-((6-(trifluoromethyl)pyridin-3-yl)sulfonyl)spiro[indoline-3,4′-piperidine]-1′-carboxylate] are at most 2000 nM and 510 to 1000 nM.
For `O=C(OCc1ccccc1)N1CCC2(CC1)CN(S(=O)(=O)c1ccc(C3CC3)cc1)c1ccccc12` [Compound I-188, benzyl 1-((4-cyclopropylphenyl)sulfonyl)spiro[indoline-3,4′-piperidine]-1′-carboxylate], the figures for the EC50 in test [1] and in test [2] were at most 2000 nM and at least 5010 nM, respectively.
For `CC1(C)Cc2cc(S(=O)(=O)N3CC4(CCN(C(=O)OCc5ccccc5)CC4)c4ccccc43)ccc2O1` [Compound I-189, benzyl 1-((2,2-dimethyl-2,3-dihydrobenzofuran-5-yl)sulfonyl)spiro[indoline-3,4′-piperidine]-1′-carboxylate] the same measures were at most 2000 nM and at most 500 nM.
The corresponding values for `CC(C)C(=O)N1CC2(CCN(C(=O)OCc3ccccc3)CC2)c2ccccc21` [Compound I-190, benzyl 1-(2-methylpropanoyl)-1,2-dihydrospiro[indole-3,4′-piperidine]-1′-carboxylate] are at least 10000 nM and at least 5010 nM.
The corresponding values for `O=C(OCc1ccccc1)N1CCC2(CC1)CN(C(=O)C1(c3ccccc3)CC1)c1ccccc12` [Compound I-191, benzyl 1-(1-phenylcyclopropanecarbonyl)-1,2-dihydrospiro[indole-3,4′-piperidine]-1′-carboxylate] are 2010 to 8000 nM and at least 5010 nM.
Regarding `O=C(Nc1ccc2c(c1)CCO2)N1CCC2(CC1)CN(S(=O)(=O)c1ccc(C(F)F)cc1)c1ccccc12` [Compound I-219, 1-((4-(difluoromethyl)phenyl)sulfonyl)-N-(2,3-dihydrobenzofuran-5-yl)spiro[indoline-3,4′-piperidine]-1′-carboxamide], the concentration for a half-maximal effect (EC50) in test [1] is at least 10000 nM; in test [2] it was at least 5010 nM.
For `O=C(Nc1ccc2c(c1)OCO2)N1CCC2(CC1)CN(S(=O)(=O)c1ccc(C(F)F)cc1)c1ccccc12` [Compound I-220, N-(benzo[d][1,3]dioxol-5-yl)-1-((4-(difluoromethyl)phenyl)sulfonyl)spiro[indoline-3,4′-piperidine]-1′-carboxamide], the EC50 is 2010 to 8000 nM in test [1] and at least 5010 nM in test [2].
As for `O=C(Nc1cccc(C(F)F)c1)N1CCC2(CC1)CN(S(=O)(=O)c1ccc(C(F)F)cc1)c1ccccc12` [Compound I-221, N-(3-(difluoromethyl)phenyl)-1-((4-(difluoromethyl)phenyl)sulfonyl)spiro[indoline-3,4′-piperidine]-1′-carboxamide], the results for the EC50 in test [1] and in test [2] were 2010 to 8000 nM and at least 5010 nM, respectively.
For `O=C(NC1COc2ccccc2C1)N1CCC2(CC1)CN(S(=O)(=O)c1ccc(C(F)F)cc1)c1ccccc12` (centres unmarked) [Compound I-222, N-(chroman-3-yl)-1-((4-(difluoromethyl)phenyl)sulfonyl)spiro[indoline-3,4′-piperidine]-1′-carboxamide] the same measures were at most 2000 nM and at least 5010 nM.
The corresponding values for `O=C(NC1CCOc2ccccc21)N1CCC2(CC1)CN(S(=O)(=O)c1ccc(C(F)F)cc1)c1ccccc12` (centres unmarked) [Compound I-223, N-(chroman-4-yl)-1-((4-(difluoromethyl)phenyl)sulfonyl)spiro[indoline-3,4′-piperidine]-1′-carboxamide] are at most 2000 nM and 510 to 1000 nM.
For `O=C(Nc1ccc2c(c1)OCCO2)N1CCC2(CC1)CN(S(=O)(=O)c1ccc(C(F)F)cc1)c1ccccc12` [Compound I-225, 1-((4-(difluoromethyl)phenyl)sulfonyl)-N-(2,3-dihydrobenzo[b][1,4]dioxin-6-yl)spiro[indoline-3,4′-piperidine]-1′-carboxamide] the same measures were at least 10000 nM and at least 5010 nM.

The values are drawn from patent US20230416262A1, “TRPML MODULATORS” (Casma Therapeutics, Inc., priority 2020, published 2023).
